How the values were obtained:
[1] = target: T1, human synovial fluid PLA2 (Homo sapiens, UniProt P14555); assay: in vitro isolated phospholipase A2 assay, human synovial fluid PLA2; type: biochemical; conditions: for inhibition at 50 µM / inhibition at 10 µM: read-out: % Inhibition HSF (human synovial fluid)
T1 construct: Purified human synovial fluid; from tissue; host or cells: human synovial fluid
T1 sequence (P14555 21-144): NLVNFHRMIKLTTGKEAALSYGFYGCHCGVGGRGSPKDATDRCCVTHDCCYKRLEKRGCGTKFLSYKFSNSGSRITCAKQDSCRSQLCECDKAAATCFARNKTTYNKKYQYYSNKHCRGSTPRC
Protocol: (§1) The compounds of the invention are tested in an in vitro isolated phospholipase A2 assay to determine the ability of the test compounds to inhibit the release of arachidonic acid from an arachidonic acid-containing substrate by the action of phospholipase A2 enzyme from human and non-human sources.
(§2) Into a 15 mL polypropylene tube are added the following:
(§3) ^3 H-AA E. coli substrate^1
(§4) Tris-HCl (0.5 M) pH 7.5^3
(§5) PLA2 25 Volume yielding 12%
(§6) 100 hydrolysis in 10 min.
(§7) *pre-incubate at room temperature 30 min prior to substrate addition.
(§8) ^6 Two human PLA2 enzymes are used: a) Semipurified human
(§9) platelet acid extract PLA2 (in 10 mM sodium acetate buffer, pH 4.5).
(§10) Remove protein precipitate by centrifugation at about 2200 rpm for 10
(§11) minutes. b) Purified human synovial fluid.
(§12) Incubate the 100 μL reaction mixture for 10 minutes at 37° C. in a shaking water bath. The reaction is terminated by the addition of 2 mL tetrahydrofuran, followed by vortexing. NH2 columns (100 μg/mL--Analytichem International) are conditioned with 0.5 mL tetrahydrofuran followed by 0.5 mL tetrahydrofuran/water (2 mL:0.1 mL, v/v).
(§13) The sample is loaded onto the columns and slowly drawn through them. The hydrolyzed arachidonic acid retained in the columns is eluted therefrom with 1 mL tetrahydrofuran/glacial acetic acid (2%). The arachidonic acid is transferred to scintillation vials and quantitated by β-counting analysis. A "total counts" sample is prepared by pipetting 25 μL ^3 H-arachidonate E. coli directly into a scintillation vial to which is added 1 mL tetrahydrofuran. 10 mL aquasol (scintillation cocktail) is added to all samples.

human platelet PLA2 = target: T2, human platelet PLA2 (Homo sapiens, UniProt P14555); assay: in vitro isolated phospholipase A2 assay, human platelet PLA2; type: biochemical; conditions: for inhibition at 50 µM / inhibition at 10 µM: read-out: % Inhibition HP (human platelet)
T2 construct: platelet acid extract PLA2; from tissue; host or cells: human platelets, semipurified acid extract
T2 sequence (P14555 21-144): T1 sequence (P14555 21-144)
Protocol: as §1, §2, §3, §4, §5, §6, §7, §8, §9, §10, §11, §12, §13

cyclooxygenase (PGE2) = assay: resident murine peritoneal macrophage assay, PGE2; type: cell-based, mouse (Swiss Webster); conditions: Mus musculus, Peritoneal macrophage
Protocol: (§14) The ability of the compounds of the invention to act as inhibitors of the enzymes 5-lipoxygenase and cyclooxygenase is measured in the resident murine peritoneal macrophage assay.
Resident peritoneal macrophages are collected from female Swiss Webster mice (49 days old, 20-25 gms, Buckshire) by lavaging with 7-8 ml Hanks Balanced Salt Solution (HBSS) without Ca^++ and Mg^++ (GIBCO). The lavage fluid from several mice is pooled and centrifuged at 4° C. for 10 minutes at 400 xg. The cell pellet is resuspended in Medium 199 (GIBCO) with HEPES buffer containing 100 μg/ml gentamicin. Two ml of the cell suspension (4×10^6 cells) are then plated on 35 mm culture dishes (Nunc).
A macrophage monolayer is established after a 1-1.5 hour incubation of the cells at 37° C. in an atmosphere of […] and 5% CO2. The monolayers are washed 2× with 2 ml HBDSS, containing Ca^++ and Mg^++ after which 2 ml Medium 199 supplemented with 10% freshly thawed heat-inactivated fetal bovine serum and 100 μg/ml gentamicin is added for an overnight incubation.
(§15) Residual serum and cellular debris are removed from the monolayers by washing 3× with 2 ml HBSS containing Ca^++ and Mg^++. Macrophages are preincubated for 5 minutes with 1 ml serum-free M199 containing 10 μl dimethyl sulfoxide (DMSO) vehicle or test compound prior to cell activation with zymosan ([…]) or arachidonic acid (AA) (2 μM). After 2 hours, the supernatants are removed and either assayed for LTC4 and PGE2 by radioimmunoassay (RIA) directly or stored at -20° C. In all cases, results are expressed as ng metabolite/4×10^6 cells.
(§16) Raw data (dpm) may be stored directly onto an "Autostart" tape using the HP85 in room C-096. The raw data are converted to ng metabolite/4-10^6cells using the standard curve by a "RIANAL" program (HP85) or a "NONLIN" program (HP9816). Results are then expressed as percent inhibition of zymosan induced, leukotriene or prostaglandin synthesis (control) using the equation: [formula]

5-lipoxygenase (LTC4) = assay: resident murine peritoneal macrophage assay, LTC4; type: cell-based, mouse (Swiss Webster); conditions: Mus musculus, Peritoneal macrophage, zymosan stimulation
Protocol: as §14
Resident peritoneal macrophages are collected from female Swiss Webster mice (49 days old, 20-25 gms, Buckshire) by lavaging with 7-8 ml Hanks Balanced Salt Solution (HBSS) without Ca^++ and Mg^++ (GIBCO). The lavage fluid from several mice is pooled and centrifuged at 4° C. for 10 minutes at 400 xg.
as §15, §16

[2] = at 10 μM, + values given without explanation

| Molecule | inhibition at 10 µM [1, 2] [%] | inhibition at 10 µM (human platelet PLA2; [2]) [%] | also measured |
| --- | --- | --- | --- |
| O=C(CCc1c[nH]c2ccccc12)C1=C(O)COC1=O [Example 4, 4-Hydroxy-3-[3-(1H-indol-3-yl)-1-oxopropyl]-2(5H)-furanone] | – | – | inhibition at 50 µM [1]: 25%; inhibition at 50 µM (human platelet PLA2): 10% |
| CCCCCCCCCCC[C@@H]1C[C@@H]1CCCCC(=O)C1=C(O)COC1=O (relative stereo) [Example 55] | – | – | inhibition at 0.1 µM (cyclooxygenase (PGE2); zymosan stimulation, 0.1 μM): 39.2%; inhibition at 0.5 µM (cyclooxygenase (PGE2); zymosan stimulation, 0.5 μM, read-out: PGE2 zymosan % Inhibition): 74.3%; inhibition at 0.1 µM (5-lipoxygenase (LTC4); 0.1 μM): 80.3%; inhibition at 0.5 µM (5-lipoxygenase (LTC4); 0.5 μM): 64.2% |
| CCCCCCCC/C=C\CCCCCCCC(=O)OCC(CCC(=O)O)OC(=O)CCCCCCC/C=C\CCCCCCCC (centres unmarked) [Example 24A, 4,5-Bis[((Z)-1-oxo-9-octadecenyl)oxy]pentanoic acid] | 80.7 | 45.4 | – |
| O=C(COCc1ccccc1)C1=C(O)COC1=O [Example 3, 4-Hydroxy-3-[(phenylmethoxy)acetyl]-2(5H)-furanone] | – | – | inhibition at 50 µM [1]: 25%; inhibition at 50 µM (human platelet PLA2): 3.5% |
| O=C(CCCc1c[nH]c2ccccc12)C1=C(O)COC1=O [Example 5, 4-Hydroxy-3-[4-(1H-indol-3-yl)-1-oxobutyl]-2(5H)-furanone] | – | – | inhibition at 50 µM [1]: 11%; inhibition at 50 µM (human platelet PLA2): 0% |
| O=C(CCCCCOc1ccc(Cl)cc1)C1=C(O)COC1=O [Example 21, 4-Hydroxy-3-[6-(4-chlorophenoxy)-1-oxohexyl]-2(5H)-furanone] | 24 | 2.5 | – |
| CC1=C(CC(=O)O)c2cc(F)ccc2/C1=C\c1ccc([S+](C)[O-])cc1 (centres unmarked) [sulindac, reference compound] | – | – | IC50 [1]: 30.2 µM |
| 4-Hydroxy-3-(1-oxoeicosanoyl)-2(5H)-furanone [Example 11] | – | – | % Inhibition HSF (human synovial fluid) [1, 2]: 32%; % Inhibition HP (human platelet) (human platelet PLA2; [2]): 6.7% |
| O=C(/C=C/c1cccc(C(F)(F)F)c1)C1=C(O)COC1=O [Example 10, (E)-4-Hydroxy-3-(1-oxo-3-(3-(trifluoromethyl)phenyl)-2-propenyl)-2 (5H)-furanone] | 34 | 9.6 | – |
| COc1ccc(OC)c(/C=C/C(=O)C2=C(O)COC2=O)c1 [Example 13, (E)-3-(3-(2,5-Dimethoxyphenyl)-1-oxo-2-propenyl)-4-hydroxy-2 (5H)-furanone] | 34 | 11 | – |
| CCCCCCCC/C=C\CCCCCCCC(=O)C1=C(O)C(C)(C)OC1=O [Example 17, (Z)-4-Hydroxy-5,5-dimethyl-3-(1-oxo-9-octadecenyl)-2(5H)-furanone] | 9 | 16 | – |
| CCCCCC#CCC#CCC#CCC#CCCCC(=O)O [ETYA, reference compound] | – | – | IC50 (cyclooxygenase (PGE2); reference compounds, 95% confidence limits on next line, read-out: IC50 PGE2): 1.26 µM |
| CCCCCCCC/C=C\CCCCCCCC(=O)OCC(CCC(=O)C1=C(O)COC1=O)OC(=O)CCCCCCC/C=C\CCCCCCCC (centres unmarked) [Example 24, (Z)-9-Octadecanoic acid 5-(2,5-dihydro-4-hydroxy-3-furanyl)-5-oxo-1,2-pentanediyl ester] | 79.5 | 56.6 | – |
| CCCCCCCCC#CCCCCCCCC(=O)C1=C(O)COC1=O [Example 27, 4-Hydroxy-3-(1-oxo-9-octadecynyl)-2(5H)-furanone] | 31.2 | 34.9 | – |
| COc1ccc(/C=C/C(=O)C2=C(O)COC2=O)cc1OC [Example 16, (E)-3-(3-(3,4-Dimethoxyphenyl)-1-oxo-2-propenyl)-4-hydroxy-2 (5H)-furanone] | 5.5 | 2.1 | – |
| O=C(CCc1ccccc1)C1=C(O)COC1=O [Example 2, 4-Hydroxy-3-(1-oxo-3-phenylpropyl)-2(5H)-furanone] | – | – | inhibition at 50 µM [1]: 27%; inhibition at 50 µM (human platelet PLA2): 8% |

Second part, led by results:

| inhibition at 10 µM [1, 2] [%] | inhibition at 10 µM (human platelet PLA2; [2]) [%] | Molecule | also measured |
| --- | --- | --- | --- |
| 10 | 37.1 | CCCCCCOc1ccc(OCCCCCC(=O)C2=C(O)COC2=O)cc1 [Example 33, 4-Hydroxy-3-[6-[4-(hexyloxy)phenoxy]-1-oxohexyl]-2(5H)-furanone] | – |
| 34.5 | 33.5 | CCCCCCCCCCCCNC(=O)OCC(CCC(=O)C1=C(O)COC1=O)OC(=O)NCCCCCCCCCCCC (centres unmarked) [Example 31, Dodecylcarbamic acid 5-(2,5-dihydro-4-hydroxy-2-oxo-3-furanyl)-5-oxo-1,2-pentanediyl ester] | – |
| 33.6 | 20.6 | O=C(CCCCCCCCOc1ccc(Cl)cc1)C1=C(O)COC1=O [Example 29, 3-[9-(4-Chlorophenoxy)-1-oxononyl]-4-hydroxy-2(5H)-furanone] | – |
| 12.6 | 37.4 | CCCCCCCCCCCCCCCCCC(=O)C1=C(O)COC1=O [Example 28, 4-Hydroxy-3-(1-oxooctadecyl)-2(5H)-furanone] | – |
| 35.7 | 22.5 | CCCCCCCc1ccc(OCCCCCC(=O)C2=C(O)COC2=O)cc1 [Example 37, 3-[6-(4-Heptylphenoxy)-1-oxohexyl]-4-hydroxy-2(5H)-furanone] | – |
| 0.1 | 1.7 | CCCCC[C@@H]1C[C@@H]1CC(=O)C1=C(O)COC1=O (relative stereo) [Example 53, 4-Hydroxy-3-[(Z)-1-oxo-2-(2-pentylcyclopropy)ethyl]-2(5H)-furanone] | – |
| 74.2 | 87.7 | CCCCCCCC/C=C\CCCCCCCCNC(=O)OC(CCC(=O)O)COC/C=C(\C)CCC=C(C)C (centres unmarked) [Example 40A, 5-[((E)-3,7-Dimethyl-2,6-octadienyl)oxy]-4-[[((Z)-9-octadecenylamino)carbonyl]oxy]pentanoic acid] | – |
| 18.6 | 8.4 | CCCCCCCC[C@@H]1C[C@@H]1CCCCCCCC(=O)C1=C(O)CSC1=O (relative stereo) [Example 52, 4-Hydroxy-3-[(Z)-8-(2-octylcyclopropyl)-1-oxooctyl]-2(5H)-thiophenone] | – |
| 10.3 | 25.4 | CCCCCCCC/C=C/CCCCCCCC(=O)C1=C(O)COC1=O [Example 36, 4-Hydroxy-3-((E)-1-oxo-9-octadecenyl)-2(5H)-furanone] | – |
| 43.2 | 47.7 | CCCCCCCCCCCCNC(=O)OCC(CCC(=O)O)OC(=O)NCCCCCCCCCCCC (centres unmarked) [Example 31A, 4,5-Bis[[(Dodecylamino)carbonyl]oxy]pentanoic acid] | – |
| 20.3 | 24.4 | CC(C)(C)CC(C)(C)c1ccc(OCCCCCC(=O)C2=C(O)COC2=O)cc1 [Example 39] | – |
| 15.1 | 31.6 | O=C(CCCCCOc1ccc(OCc2ccc(Cl)cc2)cc1)C1=C(O)COC1=O [Example 32, 4-Hydroxy-3-[6-[4-[(4-chlorophenyl)methoxyphenoxy]]1-oxohexyl]-2(5H)-furanone] | – |

Reference: patent US5242945A, “Tetronic and thiotetronic acid derivatives as phospholipase A2 inhibitors” (American Home Products Corporation, priority 1991, dated 1993)
